Blank lines part the entries; values can stand above or below the compound they belong to.
Columns and labels:
TRPML2 = molecular target: T1, TRPML2 (Homo sapiens, UniProt Q8IZK6); experiment: FLIPR assay, TRPML2 inhibition; format: cell-based
T1 sequence (Q8IZK6 1-566): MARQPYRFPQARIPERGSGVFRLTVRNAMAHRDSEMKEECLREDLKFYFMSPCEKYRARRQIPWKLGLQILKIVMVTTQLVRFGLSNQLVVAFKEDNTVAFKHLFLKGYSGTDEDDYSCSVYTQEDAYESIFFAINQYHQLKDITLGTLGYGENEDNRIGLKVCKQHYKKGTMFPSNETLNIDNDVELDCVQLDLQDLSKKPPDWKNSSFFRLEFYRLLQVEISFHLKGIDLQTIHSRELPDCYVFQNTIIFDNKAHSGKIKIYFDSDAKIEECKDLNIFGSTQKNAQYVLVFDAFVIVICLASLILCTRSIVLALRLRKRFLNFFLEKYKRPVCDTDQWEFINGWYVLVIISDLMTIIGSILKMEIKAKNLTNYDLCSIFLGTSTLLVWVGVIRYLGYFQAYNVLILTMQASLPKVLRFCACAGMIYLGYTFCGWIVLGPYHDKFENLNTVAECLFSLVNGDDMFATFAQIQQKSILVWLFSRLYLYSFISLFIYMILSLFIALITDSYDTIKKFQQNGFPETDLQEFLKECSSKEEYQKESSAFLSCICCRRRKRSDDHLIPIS
Protocol: The FLIPR assay is used to screen ion channel targets using membrane permeable fluorescent dyes. […]
(§1) In details, human TRP cells are trypsinized, counted and seeded in black, clear-bottomed 96 well plates at a density of 50,000 cells per well and incubated overnight. Next day, media is removed from cell plates and 25 μl assay buffer is added. Red membrane potential or Calcium 5 dye solution (10 μl) is added to the wells and incubated at 37° C. for 1 hour. TRPV3, TRPML2 and TRPC4 are tested using the membrane potential dye.
(§2) Dye solution is made up in assay buffer. Compound dilutions are performed in 100% DMSO or dH2O then transferred to intermediate dilutions (5% DMSO/assay buffer or 5% dH2O/assay buffer) for a short time (<10 minutes) just before adding to the cell plate.

TRPV3 = molecular target: T2, TRPV3 (Homo sapiens, UniProt Q8NET8); experiment: FLIPR assay, TRPV3 inhibition; format: cell-based
T2 sequence (Q8NET8 1-790): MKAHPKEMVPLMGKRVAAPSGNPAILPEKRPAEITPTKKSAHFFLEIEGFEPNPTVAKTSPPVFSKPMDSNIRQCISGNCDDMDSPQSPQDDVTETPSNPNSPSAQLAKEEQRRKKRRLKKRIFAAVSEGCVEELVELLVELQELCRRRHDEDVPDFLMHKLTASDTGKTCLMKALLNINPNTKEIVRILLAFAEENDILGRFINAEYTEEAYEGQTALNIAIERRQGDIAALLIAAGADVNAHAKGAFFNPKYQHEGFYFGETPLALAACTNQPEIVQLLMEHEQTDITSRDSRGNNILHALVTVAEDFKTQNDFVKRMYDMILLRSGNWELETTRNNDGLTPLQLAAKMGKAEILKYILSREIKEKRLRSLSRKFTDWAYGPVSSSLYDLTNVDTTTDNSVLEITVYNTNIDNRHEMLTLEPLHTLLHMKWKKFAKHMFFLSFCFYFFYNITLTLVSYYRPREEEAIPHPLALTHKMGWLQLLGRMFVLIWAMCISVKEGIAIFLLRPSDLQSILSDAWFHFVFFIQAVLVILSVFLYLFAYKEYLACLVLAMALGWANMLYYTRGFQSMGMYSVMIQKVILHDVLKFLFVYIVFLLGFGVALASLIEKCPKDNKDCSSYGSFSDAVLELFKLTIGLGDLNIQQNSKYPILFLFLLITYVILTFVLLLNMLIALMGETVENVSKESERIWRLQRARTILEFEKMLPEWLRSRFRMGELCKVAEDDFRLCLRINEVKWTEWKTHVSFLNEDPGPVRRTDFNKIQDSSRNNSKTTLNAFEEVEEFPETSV
Source text: The FLIPR assay is used to screen ion channel targets using membrane permeable fluorescent dyes. In particular, ion channel targets with significant Ca permeability, produce an increase in intracellular calcium that can be measured using calcium-sensitive dyes (Michelle R. Arkin et al. FLIPR™ Assays for GPCR and Ion Channel Targets. Assay Guidance Manual [Internet]. Bethesda (MD): Eli Lilly & Company and the National Center for Advancing Translational Sciences; 2004).
(§3) TRPV3 is an ionic channel that plays an important role in itching and inflammation, which are two characterizing aspects of ocular surface diseases such as VKC and AKC.
as §1, §2
The plates are placed in the FLIPR and fluorescence monitored every 1.52 seconds. After 20 seconds 10 μl of the appropriate standard agonist is added and the fluorescence monitored for 5 minutes at ex/em: 488 nm/510-570 nm.
Reference agonists and antagonists have been tested against each channel to check that the value is within the acceptable range in order to validate the assays.
Percentage activation and inhibition values of the test compound and reference compounds has been evaluated.

tear secretion = experiment: Tear secretion by modified Schirmer test in scopolamine-treated mice; format: in vivo; settings: mouse, day 22 and day 25, compared between treated groups
Protocol: In details, 15 mice (N=5 per group) were randomly assigned at baseline to 3 groups and dry eye was induced by treatment with a subcutaneous injection protocol of 0.5 mg/0.2 ml scopolamine hydrobromide, as previously described (Yeh S et al. Invest Ophthalmol Vis Sci, 2003, 44 (1): 124-9). […] In the treatment groups, ten microliters of the test formulations were instilled in each mouse three times a day in both eyes starting at Day 1 after the first scopolamine injection for 25 days. The treatments were encoded, and the group allocation was blinded to the technician administering the treatment, and to the researcher assessing the outcome of the experiment. Group identification was uncovered at the end of the analysis. Tear secretion was also measured in all animals by modified Schirmer test at day 22 and at day 25, as described in Rossi S. et al. Arch Ital Biol. 2012 March; 150 (1): 15-21.

TRPC4 = molecular target: T3, TRPC4 (Homo sapiens, UniProt Q9UBN4); experiment: FLIPR assay, TRPC4 activation; format: cell-based; settings: 30 μM
T3 sequence (Q9UBN4 1-977): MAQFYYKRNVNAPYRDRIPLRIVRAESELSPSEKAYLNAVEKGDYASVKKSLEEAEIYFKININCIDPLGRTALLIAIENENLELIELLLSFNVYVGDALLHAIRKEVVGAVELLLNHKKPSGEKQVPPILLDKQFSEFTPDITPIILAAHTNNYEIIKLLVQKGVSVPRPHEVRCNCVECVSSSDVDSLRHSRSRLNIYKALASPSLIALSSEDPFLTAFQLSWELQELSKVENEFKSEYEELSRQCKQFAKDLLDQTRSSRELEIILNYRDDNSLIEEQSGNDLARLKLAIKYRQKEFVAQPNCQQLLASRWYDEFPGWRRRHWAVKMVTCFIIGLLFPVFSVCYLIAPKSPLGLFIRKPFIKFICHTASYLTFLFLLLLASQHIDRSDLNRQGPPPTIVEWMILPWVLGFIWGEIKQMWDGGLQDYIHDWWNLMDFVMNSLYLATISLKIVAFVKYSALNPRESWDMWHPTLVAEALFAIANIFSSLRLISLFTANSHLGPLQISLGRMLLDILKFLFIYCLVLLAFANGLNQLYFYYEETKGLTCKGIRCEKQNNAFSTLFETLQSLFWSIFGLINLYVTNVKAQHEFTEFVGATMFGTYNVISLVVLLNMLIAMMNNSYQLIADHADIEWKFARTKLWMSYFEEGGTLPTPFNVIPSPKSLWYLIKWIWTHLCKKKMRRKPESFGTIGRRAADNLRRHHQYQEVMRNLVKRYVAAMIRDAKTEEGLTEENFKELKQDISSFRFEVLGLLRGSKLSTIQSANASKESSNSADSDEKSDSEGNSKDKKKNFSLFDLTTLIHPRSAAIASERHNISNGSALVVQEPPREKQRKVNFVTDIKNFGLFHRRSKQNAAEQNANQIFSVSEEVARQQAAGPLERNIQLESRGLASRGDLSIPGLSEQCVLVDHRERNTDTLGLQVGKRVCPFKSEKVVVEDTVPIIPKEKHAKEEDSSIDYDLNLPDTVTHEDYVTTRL
Protocol: The FLIPR assay is used to screen ion channel targets using membrane permeable fluorescent dyes.
as §3, §1, §2
After 20 seconds IsoCsA, CsA or standard agonist are added to the wells and the fluorescence monitored for 5 minutes at ex./em.

[1] = mouse, in vivo
eye of healthy rabbits = settings: rabbit, in vivo
[2] = 2 μM, agonist, considered equal to 0%
[3] = 56 μM, reference agonist, considered equal to 0%

TRPML2 Inhibition % Mean (TRPML2; [2]): 0%
TRPML2 Inhibition % n = 1 (TRPML2; [2]): 0%
TRPML2 Inhibition % n = 2 (TRPML2; [2]): 0%
Compound: [Ca+2].[Cl-].[Cl-] [CaCl2]

TRPV3 Inhibition % Mean (TRPV3; 100 μM, reference antagonist): 91.7%
TRPV3 Inhibition % n = 1 (TRPV3; 100 μM, reference antagonist): 90.2%
TRPV3 Inhibition % n = 2 (TRPV3; 100 μM, reference antagonist): 93.2%
Compound: N.N.N.N.N.N.N.N.N.N.N.N.N.N.[Cl-].[Cl-].[Cl-].[Cl-].[Cl-].[Cl-].[O-2].[O-2].[Ru+3].[Ru+3].[Ru+4] [RR, ruthenium red]

Compound: [Gd+3] [Gd3, Gadolinium]
TRPML2 Inhibition % Mean (TRPML2; 4 mM, antagonist): 89.6%
TRPML2 Inhibition % n = 1 (TRPML2; 4 mM, antagonist): 88.2%
TRPML2 Inhibition % n = 2 (TRPML2; 4 mM, antagonist): 90.9%

Compound: isocyclosporin A
tear secretion (tear secretion): significantly higher levels
TRPV3 Inhibition % Mean (TRPV3; 30 μM): 60.1%
TRPV3 Inhibition % n = 1 (TRPV3; 30 μM): 63.7%
TRPV3 Inhibition % n = 2 (TRPV3; 30 μM): 56.5%
ability to antagonize TRPV3 relative to cyclosporin A (TRPV3; 30 μM): more than 4 fold
TRPML2 Inhibition % Mean (TRPML2; 30 μM): 71.2%
TRPML2 Inhibition % n = 1 (TRPML2; 30 μM): 63.9%
TRPML2 Inhibition % n = 2 (TRPML2; 30 μM): 78.5%
ability to antagonize TRPML2 in comparison with cyclosporin A (TRPML2; 30 μM): more than double
effect on activation of TRPC4 (TRPC4): does not have any effect on activation of this channel
mean level in Conjunctiva [1]: 20 ± 7 ng/mg
mean level in Cornea [1]: 15 ± 5 ng/mg
mean level in Intraocular tissues (combined) [1]: 2 ± 1 ng/mg
variability of tissue levels within different animals with the same treatment [1]: significantly lower variability
frequency of the winking (eye of healthy rabbits): 5±1

Compound: NCCOB(c1ccccc1)c1ccccc1 [2-APB, 2-aminoetoxy diphenyl borate]
TRPV3 Inhibition % Mean (TRPV3; [3]): 0%
TRPV3 Inhibition % n = 1 (TRPV3; [3]): 0%
TRPV3 Inhibition % n = 2 (TRPV3; [3]): 0%
